Values of other authors as cited in patent publication US9078910B2, “Compositions comprising spicamycin derivatives and methods of use thereof” (DARA BioSciences, Inc., priority 2012, dated 2015).

Tested on: neuropathic pain
Conditions: Abdi et al. 2000, Kobierski et al. 2003

CCCCCCCCC/C=C/C=C/C(=O)NCC(=O)N[C@@H]1[C@@H](O)[C@@H](O)[C@@H](Nc2ncnc3[nH]cnc23)O[C@H]1[C@@H](O)CO [KRN5500, 6-[4-deoxy-4-[(2E,4E)-tetradecadienoylglycyl]amino-L-glycero-β-L-mannoheptopyranosyl]amino-9H-purine]
Efficacy in rat models of neuropathic pain: effective
